Experiment [1] deals with human primary cell-based systems. Nature of the experiment: BioMAP Diversity PLUS panel, phenotypic profiling. The note with it: tested at 6.7 and/or 20 μM; 24 to 72 hours. The procedure:
(§1) Anti-inflammatory phenotypic profiling was conducted across 12 human primary cell-based systems as part of DiscoverX's BioMAP Diversity Plus program. These systems are designed to model complex human tissue and disease biology of the vasculature, skin, lung, and inflammatory tissues. Quantitative measurements of biomarker activities across this broad panel were used to assess each biochemical's anti-inflammatory activity at four concentrations ([…] and 2.2, 6.7 and 20 μM). […] Protein-based biomarkers from activated cell systems were measured and compared with controls.
(§2) The Diversity PLUS panel allows test agent characterization in an unbiased way across a broad set of systems modeling various human disease states. These systems are designed to model complex human tissue and disease biology of the vasculature, skin, lung, and inflammatory tissues. Quantitative measurements of 148 biomarker activities across this broad panel, along with comparative analysis of biological activities from known bioactive agents, were used to predict and compare the efficacy and function of each selected compound at selected concentrations (6.7 and/or 20 μM).
(§3) BioMAP systems are constructed with one or more primary cell types from healthy human donors, with stimuli (such as cytokines or growth factors) added to capture relevant signaling networks that naturally occur in human tissue or pathological conditions. Vascular biology is modeled in both a Th1 (3C system) and a Th2 (4H system) inflammatory environment, as well as in a Th1 inflammatory state specific to arterial smooth muscle cells (CASM3C system). Additional systems recapitulate aspects of the systemic immune response including monocyte-driven Th1 inflammation (LPS system) or T cell stimulation (SAg system), chronic Th1 inflammation driven by macrophage activation (lMphg system) and the T cell-dependent activation of B cells that occurs in germinal centers (BT system). The BE3C system (Th1) and the BF4T system (Th2) represent airway inflammation of the lung, while the MyoF system models myofibroblast-lung tissue remodeling. Lastly, skin biology is addressed in the KF3CT system modeling Th1 cutaneous inflammation and the HDF3CGF system modeling wound healing.
(§4) Each test agent generates a signature BioMAP profile that is created from the changes in protein biomarker readouts within individual system environments. Biomarker readouts (7-17 per system) are selected for therapeutic and biological relevance, are predictive for disease outcomes or specific drug effects and are validated using agents with known mechanism of action (MoA). Each readout is measured quantitatively by immune-based methods that detect protein (e.g., ELISA) or functional assays that measure proliferation and viability. BioMAP readouts are diverse and include cell surface receptors, cytokines, chemokines, matrix molecules and enzymes. In total, the Diversity PLUS panel contains 148 biomarker readouts that capture biological changes that occur within the physiological context of the particular BioMAP system.
(§5) Activated BioMAP systems were incubated with each compound for 24 to 72 hours. Protein-based biomarkers from activated cell systems were measured and compared with non-treated control systems.

Experiment [2] deals with 4H: Venular endothelial cells (IL-4, histamine). The experiment can be described thus: BioMAP 4H system. Type of experiment: cell-based, human. The note with it: at the compound's active concentration.
Excerpt: as §2
BioMAP systems are constructed with one or more primary cell types from healthy human donors, with stimuli (such as cytokines or growth factors) added to capture relevant signaling networks that naturally occur in human tissue or pathological conditions. Vascular biology is modeled in both a Th1 (3C system) and a Th2 (4H system) inflammatory environment, as well as in a Th1 inflammatory state specific to arterial smooth muscle cells (CASM3C system). […]
as §4, with “system. […]” for “system.”
as §5

In experiment [3] the test system is SAg: Venular endothelial cells, peripheral blood mononuclear cells (TCR ligands). Nature of the experiment: BioMAP SAg system. Type of experiment: cell-based, human. The note with it: SAg system; at the compound's active concentration. The method, then:
as §1, with “controls. Biomarker activities were annotated when 2 or more consecutive concentrations change in the same directions relative to vehicle controls, were outside of the significance envelope and had at least one concentration with an effect size>20% (log 10 ratio)>0.1.” for “controls.”
In this system, human primary peripheral blood mononuclear cells and human umbilical vein endothelial cells were stimulated with T-cell receptor ligands and incubated with the test agent, drug control, or vehicle control for 24 hours. A negative, non-stimulated system was also included. […] This antiproliferative activity was lost at higher concentrations (20 μM). In this system, T cell proliferation is considered a critical event driving an inflammatory response.
The Diversity PLUS panel allows test agent characterization in an unbiased way across a broad set of systems modeling various human disease states. These systems are designed to model complex human tissue and disease biology of the vasculature, skin, lung, and inflammatory tissues. Quantitative measurements of 148 biomarker activities across this broad panel, along with comparative analysis of biological activities from known bioactive agents, were used to predict and compare the efficacy and function of each selected compound at selected concentrations (6.7 and/or 20 μM). […]
as §4, with “system. […]” for “system.”

Experiment [4] has as its system BT: Peripheral blood mononuclear cells, B cells (α-IgM, TCR ligands). The experiment can be described thus: BioMAP BT system. It is filed as cell-based, human. The method, then: as §1, with “controls. Biomarker activities were annotated when 2 or more consecutive concentrations change in the same directions relative to vehicle controls, were outside of the significance envelope and had at least one concentration with an effect size>20% (log 10 ratio)>0.1.” for “controls.”
(§6) In the first system, human primary peripheral blood mononuclear cells and venular endothelial cells were stimulated with lipopolysaccharide (LPS) and incubated with the test agent, drug control, or vehicle control for 24 hours. In the second system, peripheral blood mononuclear cells and B cells were stimulated with α-IgM and T cell receptor ligands and incubated with the test agent, drug control, or vehicle control for 24 hours. In both systems, a negative, non-stimulated system was also included.
as §2, §3
as §4, with “system. […]” for “system.”

Experiment [5] concerns HDF3CGF: Dermal fibroblasts. The experiment can be described thus: BioMAP HDF3CGF system. It is filed as cell-based, human. The note with it: at the compound's active concentration.
Excerpt: as §2, §3
as §4, with “system. Specific BioMAP activities have been correlated to in vivo biology, and multiparameter BioMAP profiles have been used to distinguish compounds based on MoA and target selectivity across diverse physiological systems.” for “system.”
as §5

The subject of experiment [6] is LPS: Venular endothelial cells, peripheral blood mononuclear cells (TLR4 ligand). Nature of the experiment: BioMAP LPS system. It is filed as cell-based, human. The procedure: as §1, with “controls. Biomarker activities were annotated when 2 or more consecutive concentrations change in the same directions relative to vehicle controls, were outside of the significance envelope and had at least one concentration with an effect size>20% (log 10 ratio)>0.1.” for “controls.”
as §6, §2, §3
as §4, with “system. […]” for “system.”

The subject of experiment [7] is BE3C: Bronchial epithelial cells (IL-1β, IFNγ, TNFα). The experiment can be described thus: BioMAP BE3C system. Type of experiment: cell-based, human. The note with it: at the compound's active concentration.
Excerpt: (§7) The Diversity PLUS panel allows test agent characterization in an unbiased way across a broad set of systems modeling various human disease states. These systems are designed to model complex human tissue and disease biology of the vasculature, skin, lung, and inflammatory tissues.
as §3
as §4, with “enzymes.” for “enzymes. In total, the Diversity PLUS panel contains 148 biomarker readouts that capture biological changes that occur within the physiological context of the particular BioMAP system.”
as §5

Experiment [8] deals with CASM3C: Coronary artery smooth muscle cells (IL-1β, TNFα, IFNγ). The experiment can be described thus: BioMAP CASM3C system. It is filed as cell-based, human. The note with it: at the compound's active concentration.
Excerpt: as §7, §3
as §4, with “enzymes.” for “enzymes. In total, the Diversity PLUS panel contains 148 biomarker readouts that capture biological changes that occur within the physiological context of the particular BioMAP system.”
as §5

For experiment [9], the system named is 3C system (Th1 vascular biology). Nature of the experiment: BioMAP 3C system. The note with it: at the compound's active concentration. Type of experiment: cell-based, human.
Excerpt: as §4, with “The Diversity PLUS panel allows test agent characterization in an unbiased way across a broad set of systems modeling various human disease states. These systems are designed to model complex human tissue and disease biology of the vasculature, skin, lung, and inflammatory tissues. […] BioMAP systems are constructed with one or more primary cell types from healthy human donors, with stimuli (such as cytokines or growth factors) added to capture relevant signaling networks that naturally occur in human tissue or pathological conditions. […] Each test” for “Each test”, “BioMAP system. […]” for “BioMAP system.”

The test system of experiment [10] is /Mphg: Macrophages, venular endothelial cells (TLR2 ligand). The experiment can be described thus: BioMAP /Mphg system. It is filed as cell-based, human. The note with it: at the compound's active concentration.
Excerpt: as §2, §3
as §4, with “system. […]” for “system.”
as §5

[11] abbreviates: BT system, at the compound's active concentration.
Setting [12] is: at the compound's active concentration.

Molecules are shown by their SMILES.

Consider `N=C(N)NCCCC(=O)O` [4-guanidinobutanoate], for which, in [1], the Active concentrations fell in the range of 6.7 to 20 µM. Besides, the “MCP-1, log10 reduction vs nontreated controls” value in experiment [2] is listed as −0.12 log10. Besides, in experiment [3], the “CD38, log10 reduction vs nontreated controls” value was −0.10 log10 and the “T cell proliferation, log10 reduction vs nontreated controls” value is given as −0.13 log10. In [4] (setting [11]), the “Secreted IgG, log10 reduction vs nontreated controls” value is given as −0.49 log10; the “TNF-alpha (sTNF-alpha), log10 reduction vs nontreated controls” value (“TNF-alpha (sTNF-alpha), log10 reduction” below) was −0.10 log10; the “sIL-17A, log10 reduction vs nontreated controls” value is −0.17 log10. In experiment [5], the “CXCL10, log10 reduction vs nontreated controls” value is listed as −0.11 log10; the “CXCL11, log10 reduction vs nontreated controls” value was −0.19 log10; the “Collagen III, log10 reduction vs nontreated controls” value is listed as −0.30 log10; the “Fibroblast proliferation, log10 reduction vs nontreated controls” value is −1.09 log10. Further, in [5], the “TIMP-1, log10 reduction vs nontreated controls” value is recorded as −0.14 log10 and the “VCAM-1, log10 reduction vs nontreated controls” value is −0.19 log10.

For the molecule `CC(=O)N[C@H](C(=O)O)[C@@H](C)O` [N-acetylthreonine], the Active concentrations in [1] worked out at 20 µM. Further, the “VEGFR2, log10 reduction vs nontreated controls” value in experiment [2] is on record as −0.16 log10. Moreover, the “Secreted IgG, log10 reduction vs nontreated controls” value in [4] (setting [11]) is −0.41 log10.

`C[C@H](CCC(=O)O)[C@H]1CC[C@H]2[C@@H]3[C@H](O)C[C@@H]4C[C@H](O)CC[C@]4(C)[C@H]3C[C@H](O)[C@]12C` [cholate]: the Active concentrations in [1] was found to be 20 µM. In addition, the “Tissue factor, log10 reduction vs nontreated controls” value (“Tissue factor, log10 reduction” for short) in [6] (setting [12]) was −0.13 log10. In addition, the “MMP-1, log10 reduction vs nontreated controls” value (“MMP-1, log10 reduction” for short) in experiment [7] is −0.10 log10. Besides, the “Thrombomodulin, log10 reduction vs nontreated controls” value (“Thrombomodulin, log10 reduction” for short) in experiment [8] (CASM3C system) is −0.12 log10.

As for `N[C@@H](CCC(=O)N[C@@H](Cc1c[nH]cn1)C(=O)O)C(=O)O` [gamma-glutamylhistidine], in [1], the Active concentrations stood at 20 µM. Further, the “Tissue factor, log10 reduction” value in experiment [9] is −0.12 log10. In experiment [6] (setting [12]), the “CD40, log10 reduction vs nontreated controls” value is on record as −0.11 log10 and the “E-selectin, log10 reduction vs nontreated controls” value is −0.11 log10. In experiment [4] (setting [11]), the “TNF-alpha (sTNF-alpha), log10 reduction” value is −0.18 log10. For the same molecule, the “MMP-1, log10 reduction” value in [7] is given as −0.10 log10. The “Thrombomodulin, log10 reduction” value in experiment [8] (CASM3C system) is recorded as −0.12 log10. Moreover, in experiment [10], the “IL-8, log10 reduction vs nontreated controls” value (from here on “IL-8, log10 reduction”) is listed as −0.15 log10.

`O[C@H]1[C@H](O)[C@@H](O)[C@H](O)[C@@H](O)[C@H]1O` [myo-inositol]: in experiment [1], the Active concentrations stood at 6.7 µM. In addition, the “MMP-1, log10 reduction” value in experiment [7] is reported as −0.12 log10. The “M-CSF, log10 reduction vs nontreated controls” value in experiment [8] (CASM3C system) is −0.10 log10.

As to `COc1cc(C(O)C(=O)O)ccc1O` (centres unmarked) [vanillylmandelate (VMA), vanillylmandelate], in experiment [10], the “IL-8, log10 reduction” value was −0.18 log10.

With `O=c1[nH]c(=O)c2ncn([C@@H]3O[C@H](CO)[C@@H](O)[C@H]3O)c2[nH]1` [xanthosine], the Active concentrations in experiment [1] was in the range of 6.7 to 20 µM. The “CD40, log10 reduction vs nontreated controls” value in [6] (setting [12]) is −0.12 log10. Also, the “Tissue factor, log10 reduction” value in experiment [6] (setting [12]) and in [8] (CASM3C system (system cell not printed on the line)) was −0.13 log10 in each case. The “Thrombomodulin, log10 reduction” value in [8] (CASM3C system) is −0.11 log10. The “IL-8, log10 reduction” value in experiment [10] was −0.13 log10.

As for `O=C(O)c1cc(O)c2cccc(O)c2n1` [xanthurenate], the “Secreted prostaglandin E2 (PGE2), log10 reduction vs nontreated controls” value in experiment [6] (20 μM) is given as −0.09 log10. Besides, in experiment [4] (BT system (second system)), the “Secreted interleukin 6 (IL-6), log10 reduction vs controls” value is −0.13 log10. Besides, the “TNF-alpha (sTNF-alpha), log10 reduction” value in [4] (setting [11]) is −0.19 log10.

Values taken from patent publication US12427179B2, “Compositions and methods for diagnosis and treatment of neurodegenerative diseases” (EPITRACKER, INC., priority 2019, dated 2025).
